The compounds below were run against human STAT6 (Homo sapiens (Human), UniProt P42226) (assay: Surface plasmon resonance assay (Biacore 8K, binding to immobilized STAT6)). Settings: human STAT6 aa122-658, N-terminal His-tag, CM5 chip, 25° C.; geometric mean; read-out: STAT6 SPR Kd.
Chain of human STAT6 (P42226 122-658): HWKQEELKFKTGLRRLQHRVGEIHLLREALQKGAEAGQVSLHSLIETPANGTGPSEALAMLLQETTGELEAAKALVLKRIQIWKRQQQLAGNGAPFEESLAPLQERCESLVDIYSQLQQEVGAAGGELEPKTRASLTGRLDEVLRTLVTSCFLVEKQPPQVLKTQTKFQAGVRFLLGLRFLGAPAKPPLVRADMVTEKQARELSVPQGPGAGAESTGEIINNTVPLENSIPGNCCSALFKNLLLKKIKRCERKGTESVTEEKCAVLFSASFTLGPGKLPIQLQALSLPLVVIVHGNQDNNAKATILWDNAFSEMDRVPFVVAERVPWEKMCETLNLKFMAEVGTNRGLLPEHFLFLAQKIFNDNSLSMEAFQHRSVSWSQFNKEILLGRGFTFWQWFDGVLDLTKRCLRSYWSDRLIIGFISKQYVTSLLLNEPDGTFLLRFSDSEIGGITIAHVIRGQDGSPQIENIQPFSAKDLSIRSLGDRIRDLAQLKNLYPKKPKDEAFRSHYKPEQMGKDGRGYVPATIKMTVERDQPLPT
How it was run: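 Run at 25° C with His-tagged STAT6 aa122-658 (insect-cell expressed) amine-coupled to a CM5 chip, reference-subtracted, in PBS-P+ with 2% DMSO. Multi-cycle kinetics: 60 sec. contact, up to 300 sec. dissociation. Affinity fitted from late report-point binding isotherms, with Rmax both free and fixed to theoretical 1:1.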
Compound `CN(C)C(=O)c1ccc(C2CCN(Cc3cc4c(-c5cnc(N)c(O)c5)ccnc4n3C)CC2)cc1` [Example 1k50, 4-[1-[[4-(6-Amino-5-hydroxy-3-pyridyl)-1-methyl-pyrrolo[2,3-b]pyridin-2-yl]methyl]-4-piperidyl]-N,N-dimethyl-benzamide] has a Kd of 0.557 µM. Compound `CN(C)C(=O)c1ccc(C2CCN(Cc3cc4c(-c5cnc(N)cc5C(F)F)ccnc4n3C)CC2)cc1` [Example 1k52, 4-[1-[[4-[6-Amino-4-(difluoromethyl)-3-pyridyl]-1-methyl-pyrrolo[2,3-b]pyridin-2-yl]methyl]-4-piperidyl]-N,N-dimethyl-benzamide] has a Kd of 0.0535 µM. `CN(C)C(=O)c1ccc(C2CCN(Cc3cc4c(-c5cnc(N)cc5C#N)ccnc4n3C)CC2)cc1` [Example 1k53, 4-[1-[[4-(6-Amino-4-cyano-3-pyridyl)-1-methyl-pyrrolo[2,3-b]pyridin-2-yl]methyl]-4-piperidyl]-N,N-dimethyl-benzamide] showed a Kd of 0.962 µM. Compound `CN(C)C(=O)c1ccc(C2CCN(Cc3cc4c(-c5cnc(N)nn5)ccnc4n3C)CC2)cc1` [Example 1k54, 4-[1-[[4-(3-Amino-1,2,4-triazin-6-yl)-1-methyl-pyrrolo[2,3-b]pyridin-2-yl]methyl]-4-piperidyl]-N,N-dimethyl-benzamide] has a Kd of 0.104 µM. For `CN(C)C(=O)c1ccc(C2CCN(Cc3cc4c(-c5c(C(F)F)cc(N)cc5C(F)F)ccnc4n3C)CC2)cc1` [Example 1k55, 4-[1-[[4-[4-Amino-2,6-bis(difluoromethyl)phenyl]-1-methyl-pyrrolo[2,3-b]pyridin-2-yl]methyl]-4-piperidyl]-N,N-dimethyl-benzamide], the Kd was 1.01 µM. `COC(=O)c1cc(N)ncc1-c1ccnc2c1cc(CN1CCC(c3ccc(C(=O)N(C)C)cc3)CC1)n2C` [Example 1k56, Methyl 2-amino-5-[2-[[4-[4-(dimethylcarbamoyl)phenyl]-1-piperidyl]methyl]-1-methyl-pyrrolo[2,3-b]pyridin-4-yl]pyridine-4-carboxylate] showed a Kd of 1.4 µM. `CN(C)C(=O)c1ccc(C2CCN(Cc3cc4c(-c5cnc(N)c(C#N)n5)ccnc4n3C)CC2)cc1` [Example 1k57, 4-[1-[[4-(5-Amino-6-cyano-pyrazin-2-yl)-1-methyl-pyrrolo[2,3-b]pyridin-2-yl]methyl]-4-piperidyl]-N,N-dimethyl-benzamide] was tested, and the Kd was 0.766 µM. Work on `CN(C)C(=O)c1ccc(C2CCN(Cc3cc4c(-c5ccc(N)nc5CO)ccnc4n3C)CC2)cc1` [Example 1k58, 4-[1-[[4-[6-Amino-2-(hydroxymethyl)-3-pyridyl]-1-methyl-pyrrolo[2,3-b]pyridin-2-yl]methyl]-4-piperidyl]-N,N-dimethyl-benzamide] yielded a Kd of 0.0608 µM. Work on `COCCNc1ccc(-c2ccnc3c2cc(CN2CCC(c4ccc(C(=O)N(C)C)cc4)CC2)n3C)cn1` [Example 1k59, 4-[1-[[4-[6-(2-Methoxyethylamino)-3-pyridyl]-1-methyl-pyrrolo[2,3-b]pyridin-2-yl]methyl]-4-piperidyl]-N,N-dimethyl-benzamide] yielded a Kd of 0.0573 µM. Work on `CN(C)C(=O)c1ccc(C2CCN(Cc3cc4c(-c5ccc(N)c(-c6nnn[nH]6)c5)ccnc4n3C)CC2)cc1` [Example 1k60, 4-[1-[[4-[4-Amino-3-(2H-tetrazol-5-yl)phenyl]-1-methyl-pyrrolo[2,3-b]pyridin-2-yl]methyl]-4-piperidyl]-N,N-dimethyl-benzamide] yielded a Kd of 0.0359 µM. With `CN(C)C(=O)c1ccc(C2CCN(Cc3cc4c(-c5ccc(NCCO)nc5)ccnc4n3C)CC2)cc1` [Example 1k61, 4-[1-[[4-[6-(2-Hydroxyethylamino)-3-pyridyl]-1-methyl-pyrrolo[2,3-b]pyridin-2-yl]methyl]-4-piperidyl]-N,N-dimethyl-benzamide] the Kd was 0.0165 µM. With `CN(C)C(=O)c1ccc(C2CCN(Cc3cc4c(-c5ccc(NCC(=O)O)nc5)ccnc4n3C)CC2)cc1` [Example 1k63, 2-[[5-[2-[[4-[4-(Dimethylcarbamoyl)phenyl]-1-piperidyl]methyl]-1-methyl-pyrrolo[2,3-b]pyridin-4-yl]-2-pyridyl]amino]acetic acid] the Kd was 0.0163 µM.

Source: patent US20250340551A1, “SMALL MOLECULE MODULATORS OF STAT6” (Gilead Sciences, Inc., priority 2024, published 2025)
